{"source": "patent US11903923B2", "about": "“Use of andrographolide derivatives in preparation of medicaments for preventing and treating inflammatory bowel diseases” (GUANGZHOU MAGPIE PHARMACEUTICALS CO., LTD., priority 2015, dated 2024)", "key": {"COX-2": {"test_system": "COX-2", "assay": "expression of COX-2 in colon tissue", "assay_type": "in vivo", "details": "TNBS-induced mice", "source_text": "Cyclooxygenase-2 (COX-2) is undetectable in normal human colonic epithelial cells, but the presence of a large amount of COX-2 can be detectable in the intestinal mucosal epithelial cells of CD patients and UC patients. Such high expression can cause elevated expression of pro-inflammatory substance of prostaglandin, and promote IBD epithelial congestion and edema."}, "IL-6": {"test_system": "IL-6", "assay": "serum inflammatory cytokine IL-6 in TNBS-induced ulcerative colitis mice", "assay_type": "in vivo"}, "[1]": {"test_system": "TNBS-induced ulcerative colitis mice", "assay": "disease activity index (DAI) of TNBS-induced ulcerative colitis mice", "assay_type": "in vivo", "details": "third day after enema"}, "[2]": {"details": "first 60 minutes of the reaction, in vitro; cited from earlier work"}, "[3]": {"test_system": "TNBS-induced ulcerative colitis mice", "assay": "body weight of TNBS-induced ulcerative colitis mice", "assay_type": "in vivo", "source_text": "The mice of normal control group were shown lively, body hair shiny, and weight continued to increase. The model mice after TNBS enema appeared to be apathetic and lazy with body hair messy and less luster, and with water intake being reduced. The model mice were also shown continuing decrease in body weight, with an average weight loss of 17.9% on the third day compared with that before rectal perfusion."}, "TNF-α": {"test_system": "TNF-α", "assay": "serum inflammatory cytokine TNF-α in TNBS-induced ulcerative colitis mice", "assay_type": "in vivo"}, "[4]": {"test_system": "TNBS-induced ulcerative colitis mice", "assay": "morphological observation of the colon of TNBS-induced ulcerative colitis mice", "assay_type": "in vivo", "source_text": "In the TNBS model group mice, the lesions of the colon were obvious, the colon was shortened, the proximal colon was dilated with indication of obstructive lesions, and the distal intestine became narrowed with indication of ulceration with congestion, edema, erosion and intestinal wall thickening."}, "[5]": {"test_system": "TNBS-induced ulcerative colitis mice", "assay": "histopathological observation (HE staining, CMDI) of the colon of TNBS-induced ulcerative colitis mice", "assay_type": "in vivo", "source_text": "Colon tissues were paraffin-embedded and sliced in parallel with HE staining."}, "[6]": {"test_system": "p65 subunit in the NF-κB signaling pathway", "assay": "Western blotting of p-p65 and p65 in colonic tissues", "assay_type": "in vivo, mice", "details": "compared with the model group", "source_text": "NF-κB, as a key transcription factor regulating the release of inflammatory cytokines, plays an important role in the complex cytokine dysregulation network of IBD. To investigate whether the inhibitory effect of AL-1 on the expression of inflammatory cytokines TNF-α, IL-6 and IL-1β is related to the activation of NF-κB signaling pathway, the present inventors used Western blotting to detect the expression of p-p65 and p65 in colonic tissues."}, "[7]": {"test_system": "TNBS-induced ulcerative colitis mice", "assay": "colon length of TNBS-induced ulcerative colitis mice", "assay_type": "in vivo", "details": "three days after TNBS enema"}, "myeloperoxidase (MPO)": {"test_system": "myeloperoxidase (MPO)", "assay": "MPO activity test in colon tissue of TNBS-induced ulcerative colitis mice", "assay_type": "in vivo", "source_text": "It can be seen from the results of MPO activity test in colonic tissues that the content of MPO in normal tissue was very low, the neutrophil infiltration was obvious in model group treated with TNBS, and the content of MPO increased obviously, being twice as that in normal group."}, "IL-1β": {"test_system": "IL-1β", "assay": "serum inflammatory cytokine IL-1β in TNBS-induced ulcerative colitis mice", "assay_type": "in vivo"}, "PPAR-γ": {"test_system": "PPAR-γ", "assay": "amount of PPAR-γ expressed in colon tissue", "assay_type": "in vivo", "details": "TNBS-induced mice", "source_text": "Peroxisome proliferator-activated receptor γ (PPAR-γ) may have anti-inflammatory effects by inhibiting the expression of transcription factors NF-κB, AP-1 and other related genes, have the effects of reducing the expression of inflammatory factors and adhesion molecules, and play important role for maintaining the integrity of the intestinal mucosa. Studies have shown that, when IBD occurred, the in vivo expression of PPAR-γ would be reduced in some extent."}}, "data": [{"compound": "C=C1CCC2[C@@](C)(CC[C@@H](O)[C@@]2(C)CO)C1C/C=C1/C(=O)OCC1OC(=O)CCCCC1CCSS1", "note": "(stereo partly shown) [AL-1]", "values": [{"measurement": "COX-2 expression level in colon tissue", "setting": "COX-2", "value": "effectively inhibit the increase of COX-2 expression level"}, {"measurement": "serum level of IL-6", "setting": "IL-6; AL-1 5, 15, 45 mg/kg", "value": "significantly lessen the increase"}, {"measurement": "average DAI score", "setting": "[1]; 5 mg/kg", "value": 6.00}, {"measurement": "average DAI score", "setting": "[1]; 15 mg/kg", "value": 6.25}, {"measurement": "average DAI score", "setting": "[1]; 45 mg/kg", "value": 4.00}, {"measurement": "binding rate with the sulfydryl group of GSH relative to Andro", "setting": "[2]", "value": 7, "unit": "times"}, {"measurement": "body weight increase on average compared with the model group", "setting": "[3]; AL-1 45 mg/kg, third day", "value": 4.65, "unit": "%"}, {"measurement": "serum level of TNF-α", "setting": "TNF-α; AL-1 5, 15, 45 mg/kg", "value": "significantly lessen the increase"}, {"measurement": "colon morphology", "setting": "[4]; AL-1 5, 15 and 45 mg/kg", "value": "significant reduction of the symptoms"}, {"measurement": "colon histopathology (HE staining)", "setting": "[5]; 5 mg/kg", "value": "obvious myositis cell infiltration of mucosa and submucosa but in much less extent as compared with the model groups"}, {"measurement": "colon histopathology (HE staining)", "setting": "[5]; 15 mg/kg", "value": "myositis cell infiltration was reduced"}, {"measurement": "colon histopathology (HE staining)", "setting": "[5]; 45 mg/kg", "value": "significant reduction in the amount of myositis cell infiltration of mucosa and submucosa"}, {"measurement": "CMDI (tissue damage)", "setting": "[5]; AL-1 5, 15 and 45 mg/kg", "value": "improve tissue damage in a dose-dependent manner"}, {"measurement": "phosphorylation level of p65 in colonic tissue", "setting": "[6]", "value": "significantly reduce the phosphorylation level of p65"}, {"measurement": "colon length", "setting": "[7]; AL-1 5, 15 and 45 mg/kg", "value": "enhanced the colonic length"}, {"measurement": "MPO content in the colon tissue", "setting": "myeloperoxidase (MPO); AL-1 5, 15 and 45 mg/kg", "value": "lessen in a dose-dependent manner the increase of the MPO content"}, {"measurement": "serum level of IL-1β", "setting": "IL-1β; AL-1 5, 15, 45 mg/kg", "value": "significantly lessen the increase"}, {"measurement": "expression of PPAR-γ in colon tissue", "setting": "PPAR-γ", "value": "significantly increased the expression of PPAR-γ"}]}, {"compound": "Nc1ccc(O)c(C(=O)O)c1", "note": "[Mesalazine, reference compound]", "values": [{"measurement": "COX-2 expression level in colon tissue", "setting": "COX-2", "value": "effectively inhibit the increase of COX-2 expression level"}, {"measurement": "serum level of IL-6", "setting": "IL-6; Mesalazine", "value": "significantly lessen the increase"}, {"measurement": "average DAI score", "setting": "[1]; 100 mg/kg", "value": 5.13}, {"measurement": "body weight of the mice", "setting": "[3]; Mesalazine, from the second day after modeling, P<0.05", "value": "significantly increased body weight"}, {"measurement": "serum level of TNF-α", "setting": "TNF-α; Mesalazine", "value": "significantly lessen the increase"}, {"measurement": "colon morphology", "setting": "[4]; Mesalazine group", "value": "improvement on colon injury"}, {"measurement": "colon histopathology (HE staining)", "setting": "[5]; 100 mg/kg", "value": "obvious relief of myositis cell infiltration"}, {"measurement": "CMDI (mucosal injury)", "setting": "[5]; Mesalazine", "value": "significant effect to improve mucosal injury"}, {"measurement": "phosphorylation level of p65 in colonic tissue", "setting": "[6]", "value": "significantly reduce the phosphorylation level of p65"}, {"measurement": "improvement of colon length", "setting": "[7]; Mesalazine, compared with the model groups", "value": "not significant"}, {"measurement": "MPO content in the colon tissue", "setting": "myeloperoxidase (MPO); Mesalazine, P<0.01", "value": "obviously reduce the content of MPO"}, {"measurement": "serum level of IL-1β", "setting": "IL-1β; Mesalazine", "value": "significantly lessen the increase"}, {"measurement": "expression of PPAR-γ in colon tissue", "setting": "PPAR-γ", "value": "significantly increased the expression of PPAR-γ"}]}]}
